Results from patent publication US20210371455A1, “METHODS AND COMPOSITIONS COMPRISING REDUCED LEVEL OF HOST CELL PROTEINS” (Regeneron Pharmaceuticals, Inc., priority 2019, published 2021).

What was measured:
[1] = molecular target: T1, LAL (Cricetulus griseus, UniProt G3HQY6); test: PS-20 remaining in mAb formulation with and without Lalistat-2; assay type: biochemical; parameters: endogenous in cells; host or cells: mAb production cells (CHO inferred); conditions: mAb-15 comprising 0.05% PS-20, 37° C., 15 days, 0.1 M Lalistat-2
T1 sequence (G3HQY6 19-397): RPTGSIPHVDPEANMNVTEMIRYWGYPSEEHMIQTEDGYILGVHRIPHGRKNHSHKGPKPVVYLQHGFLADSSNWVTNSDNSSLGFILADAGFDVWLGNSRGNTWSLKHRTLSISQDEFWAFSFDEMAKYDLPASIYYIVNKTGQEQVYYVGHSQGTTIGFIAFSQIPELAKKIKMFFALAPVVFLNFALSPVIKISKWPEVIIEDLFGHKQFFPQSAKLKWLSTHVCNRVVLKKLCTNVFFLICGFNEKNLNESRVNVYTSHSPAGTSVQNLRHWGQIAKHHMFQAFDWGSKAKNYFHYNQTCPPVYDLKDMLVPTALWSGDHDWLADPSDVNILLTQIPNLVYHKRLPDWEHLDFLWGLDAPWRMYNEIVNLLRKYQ
Procedure: mAb-15 comprising 0.05% PS-20 was incubated at 37° C. for 15 days in presence and absence of 0.1 M Lalistat-2. The incubated samples were analyzed at t=0, 8 days and […].

[2] = molecular target: T2, LPL (Homo sapiens, UniProt P06858); test: PS-20 remaining with LPL, with and without Lalistat-2; assay type: biochemical; conditions: 0.05% PS-20 and 10 μg/mL LPL; t=0, 8 days and 15 days
T2 sequence (P06858 28-475): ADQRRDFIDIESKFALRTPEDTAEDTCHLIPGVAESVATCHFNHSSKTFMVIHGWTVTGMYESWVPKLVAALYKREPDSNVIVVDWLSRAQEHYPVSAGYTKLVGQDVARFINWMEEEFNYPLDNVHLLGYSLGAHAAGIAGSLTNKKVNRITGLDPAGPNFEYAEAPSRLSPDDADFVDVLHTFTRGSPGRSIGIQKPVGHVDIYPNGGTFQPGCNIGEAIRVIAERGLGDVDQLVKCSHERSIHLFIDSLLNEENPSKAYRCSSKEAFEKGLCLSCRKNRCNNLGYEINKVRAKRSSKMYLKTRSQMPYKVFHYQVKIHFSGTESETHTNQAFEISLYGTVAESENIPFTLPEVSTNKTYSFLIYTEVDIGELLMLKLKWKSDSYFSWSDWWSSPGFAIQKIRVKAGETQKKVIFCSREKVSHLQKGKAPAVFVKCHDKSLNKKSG
Procedure: Thus, addition of Lalistat only causes inhibition of LAL […]. […] The incubated samples were analyzed at t=0, 8 days and 15 days. […] Therefore, if lalistat2 can inhibit lipase activity in mAbs completely, then it means the LPL detected from mAbs were not active or abundance are too low to degrade PS20. The PS20 degradation seen from recombinant LPL may either due to the only LPL in high concentration can degrade PS20, or due to unexpected impurities presented in the recombinant LPL.

[3] = molecular target: T1, LAL; test: PS-20 remaining with LAL, with and without Lalistat-2; assay type: biochemical; parameters: made in house; host or cells: CHO cells; conditions: 0.05% PS-20 and 5 μg/mL LAL; t=0, 8 days and 15 days
Procedure: The incubated samples were analyzed at t=0, 8 days and 15 days.

[4] = molecular target: T3, bovine milk lipoprotein lipase (Bos taurus, UniProt P11151); conditions: cited from earlier work
T3 construct: host or cells: bovine milk
T3 sequence (P11151 29-478): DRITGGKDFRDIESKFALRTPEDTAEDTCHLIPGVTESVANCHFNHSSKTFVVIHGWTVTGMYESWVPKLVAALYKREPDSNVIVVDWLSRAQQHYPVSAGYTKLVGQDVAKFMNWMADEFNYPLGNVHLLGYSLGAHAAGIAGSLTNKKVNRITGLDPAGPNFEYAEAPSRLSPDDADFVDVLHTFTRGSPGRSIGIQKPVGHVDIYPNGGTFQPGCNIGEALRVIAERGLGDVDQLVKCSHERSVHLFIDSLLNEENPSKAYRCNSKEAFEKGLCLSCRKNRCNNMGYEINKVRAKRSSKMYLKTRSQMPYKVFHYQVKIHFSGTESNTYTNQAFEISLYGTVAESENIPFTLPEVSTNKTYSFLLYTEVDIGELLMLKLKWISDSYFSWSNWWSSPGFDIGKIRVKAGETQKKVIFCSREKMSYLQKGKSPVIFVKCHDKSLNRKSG

[5] = molecular target: T4, lysosomal acid lipase (LAL) (Homo sapiens, UniProt P38571); conditions: cited from earlier work
T4 sequence (P38571 77-399): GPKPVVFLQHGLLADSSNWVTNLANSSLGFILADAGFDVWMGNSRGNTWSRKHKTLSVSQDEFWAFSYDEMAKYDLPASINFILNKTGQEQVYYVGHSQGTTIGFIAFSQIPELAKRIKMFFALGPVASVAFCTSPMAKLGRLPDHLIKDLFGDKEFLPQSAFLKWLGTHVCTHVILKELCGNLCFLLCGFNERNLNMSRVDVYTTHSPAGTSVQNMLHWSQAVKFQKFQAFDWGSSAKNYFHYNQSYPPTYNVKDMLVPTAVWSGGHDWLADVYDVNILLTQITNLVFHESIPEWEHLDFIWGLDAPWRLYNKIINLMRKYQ

degradation of PS-20 in mAb formulation incubated with Lalistat-2 [1]: almost no degradation of PS-20
inhibition of LPL's activity (PS-20 remaining) [2]: cannot inhibit LPL's activity
degradation of PS-20 in sample incubated with Lalistat-2 [3]: almost no degradation of PS-20
Structure (SMILES): O=C(Oc1nsnc1N1CCCCC1)N1CCCCC1 [Lalistat 2]
inhibition of bovine milk lipoprotein lipase [4]: does not exhibit inhibition
IC50 [5]: 152 nM
